Assay results: patent US20230116760A1, “STRUCTURALLY-STABILIZED ONCOLYTIC PEPTIDES AND USES THEREOF” (Dana-Farber Cancer Institute, Inc., priority 2019, published 2023)
Bridge positions count the residues as written; N and C are the ends. Square brackets hold non-standard residues; d marks the D form. Peptide text beside a SMILES is read from it. S5 = C=CCCC[C@](C)(N)C(=O)O; Nle = CCCC[C@H](N)C(=O)O

What was measured:
[1] = tested on: leukemia cells (e.g. U937, OCI-AML3 and MV4;11 cells); format: cell-based; conditions: 24 h
Method: (§1) LDH release assay: To assess the release of lactate dehydrogenase (LDH) upon treatment with a structurally-stabilized peptide described herein, an LDH release assay can be used. Cultured cells, including, e.g., cancer cells and HUVEC cells, are plated in 96-well format (2×10^4 cells per well; including overnight incubation for adherent cells) and then treated with serial dilutions of structurally-stabilized peptides in a final volume in a final volume of 100 μL and incubated at 37° C. for the indicated time period (e.g., 90 minutes). The plates are spun down at 1500 rpm for 5 minutes at 4° C., and 80 μL of cell culture media is transferred to a clear plate (Corning), incubated with 80 μL of LDH reagent (Roche) for 15 minutes while shaking, and absorbance is measured at 490 nm on a microplate reader (SpectraMax M5 Microplate Reader, Molecular Devices). LDH release assays, as tailored to specific cancer cell types (OCI-AML3 cells and primary human pediatric B-ALL cells), are exemplified below.
LDH release assay: Cultured cells, including cancer cells and HUVEC cells, were plated in 96-well format (2×10^4 cells per well; including overnight incubation for adherent cells) and then treated with serial dilutions of Mag(i+4) peptides in a final volume in a final volume of […] and incubated at 37° C. for the indicated time period. […]

[2] = mice; Mourtada et al., Nature Biotech, 2019; cited from earlier work
red blood cells (RBCs) = format: cell-based, human
Method: RBC hemolysis assay: To assess the hemolytic activity of a structurally-stabilized peptide described herein, a red blood cell (RBV) hemolysis assay can be used. Human blood samples are centrifuged to isolate RBCs, which are then washed and suspended in phosphate-buffered saline to yield a 1% (v/v) suspension. The suspension is added to serial dilutions of peptide stocks in water in clear round-bottom polypropylene 96-well plates and the plates incubated for 1 hour at 37° C. The plates are then centrifuged and the supernatant isolated to determine the amount of hemoglobin released using a spectrophotometer (570 nm). Percent hemolysis is calculated as: ([Treated Absorbance−Untreated Control Absorbance]×100)/(1% Triton X-100 Treated Absorbance−Untreated Control Absorbance).
Stapled oncolytic peptide synthesis: Fmoc-based solid-phase peptide synthesis was used to synthesize stapled antimicrobial peptides in accordance with previously reported methods for generating all-hydrocarbon stapled peptides. To achieve the various staple lengths, α-methyl, α-alkenyl amino acids were installed at i, i+4 positions using two S-pentenyl alanine residues (S5). For the stapling reaction, Grubbs 1st generation ruthenium catalyst dissolved in dichloroethane was added to the resin-bound peptides. To ensure maximal conversion, three to five rounds of stapling were performed. The peptides were then cleaved off of the resin using trifluoroacetic acid, precipitated using a hexane:ether (1:1) mixture, air dried, and purified by LC-MS. All peptides were quantified by amino acid analysis. RBC hemolysis assay: Human blood samples were centrifuged to isolate red blood cells (RBCs), which were then washed and suspended in phosphate-buffered saline to yield a 1% (v/v) suspension. The suspension was added to serial dilutions of peptide stocks in water in clear round-bottom polypropylene 96-well plates and the plates incubated for 1 hour at 37° C. The plates were then centrifuged and the supernatant isolated to determine the amount of hemoglobin released using a spectrophotometer (570 nm). Percent hemolysis was calculated as: ([Treated Absorbance−Untreated Control Absorbance]×100)/(1% Triton X-100 Treated Absorbance−Untreated Control Absorbance).

OCI-AML3 cells = experiment: LDH release assay of OCI-AML3 cells; format: cell-based, human; conditions: 10 and 25 μg/mL, 90 minutes, FIG. 6, FIG. 7
Method: as §1
LDH release assay of OCI-AML3 cells: OCI-AML3 cells are seeded in 96-well plates (2×10^4 cells per well) in RPMI medium containing 5% FBS and treated with structurally-stabilized peptides for 90 minutes. LDH release is quantified by incubating centrifuged (e.g., at 1500 rpm) cell culture medium 1:1 with LDH reagent (Roche), followed by absorbance measurement 490 nm on a microplate reader (Spectramax M5). Percent LDH release was normalized to 1% Triton.
(§2) LDH release assay: Cultured cells, including cancer cells and HUVEC cells, were plated in 96-well format (2×10^4 cells per well; including overnight incubation for adherent cells) and then treated with serial dilutions of Mag(i+4) peptides in a final volume in a final volume of […] and incubated at 37° C. for the indicated time period. The plates were spun down at 1500 rpm for 5 min at 4° C., and 80 μL of cell culture media was transferred to a clear plate (Corning), incubated with 80 μL of LDH reagent (Roche) for 15 min while shaking, and absorbance measured at 490 nm on a microplate reader (SpectraMax M5 Microplate Reader, Molecular Devices). LDH release assays, as tailored to specific cancer cell types, are exemplified below.
LDH release assay of OCI-AML3 cells: OCI-AML3 cells were seeded in 96-well plates (2×10^4 cells per well) in RPMI medium containing 5% FBS and treated with peptides having the indicated amino acid sequences for 90 minutes. LDH release was quantified by incubating centrifuged cell culture medium 1:1 with LDH reagent (Roche), followed by absorbance measurement 490 nm on a microplate reader (Spectramax M5). Percent LDH release was normalized to 1% Triton. Data was pooled from 2 technical replicates.

S. aureus = experiment: killing of S. aureus; format: cell-based; conditions: vs Mag(i+4)15
B. cereus = experiment: killing of B. cereus; format: cell-based; conditions: vs Mag(i+4)15
U937 cells = experiment: LDH release assay of U937 cells; format: cell-based; conditions: 10 and 25 μg/mL, 90 minutes, FIG. 6, FIG. 7
Method: as §1, §2

Compound | RBC lysis (red blood cells (RBCs)) | cancer cell lysis by LDH release, compared with parent Mag(i+4)15 (OCI-AML3 cells) | killing of S. aureus compared to the parent compound (S. aureus) | killing of B. cereus compared to the parent compound (B. cereus) | cancer cell lysis by LDH release, compared with parent Mag(i+4)15 (U937 cells) | also measured
CC(C)[C@@H]1NC(=O)[C@@](C)(NC(=O)[C@H](C)NC(=O)[C@H](CCCCN)NC(=O)CNC(=O)[C@H](Cc2ccccc2)NC(=O)[C@H](CCCCN)NC(=O)[C@H](CCCCN)NC(=O)[C@H](CCCCN)NC(=O)[C@H](CO)NC(=O)[C@H](Cc2c[nH]cn2)NC(=O)[C@]2(C)CCCC=CCCC[C@](C)(NC(=O)CN)C(=O)NCC(=O)N[C@@H](CCCCN)C(=O)N[C@@H](Cc3ccccc3)C(=O)N2)CCCC=CCCC[C@@](C)(C(=O)N[C@@H](C)C(=O)N[C@@H](CCCCN)C(=O)N[C@@H](CCCCN)C(N)=O)NC(=O)[C@H](CCC(=O)O)NC(=O)CNC1=O [Mag(i+4)1,15 (A9K, B21A, N22K, S23K), GX1GKFX2HSKKKFGKAX3VGEX4AKK] (H-G[S5]GKF[S5]HSKKKFGKA[S5]VGE[S5]AKK-NH2; staple 2-6, 16-20) |  |  |  |  |  | EC50 of leukemia cell lysis (LDH release) [1]: 11.5 to 28.2 µg/mL; toxicity (gross toxicity, red cell hemolysis, kidney epithelium) [2]: without gross toxicity, red cell hemolysis or damage to kidney epithelium
CCCC[C@H](NC(=O)[C@@H](NC(=O)[C@H](CCC(=O)O)NC(=O)CNC(=O)[C@@H](NC(=O)[C@H](Cc1ccccc1)NC(=O)[C@H](C)NC(=O)[C@H](CCCCN)NC(=O)CNC(=O)[C@H](Cc1ccccc1)NC(=O)[C@H](CCCCN)NC(=O)[C@H](CCCCN)NC(=O)[C@H](C)NC(=O)[C@H](CO)NC(=O)[C@]1(C)CCCC=CCCC[C@](C)(NC(=O)[C@@H](NC(=O)CN)[C@@H](C)CC)C(=O)N[C@@H](CCCCN)C(=O)N[C@@H](Cc2ccccc2)C(=O)N[C@@H](CC(C)C)C(=O)N1)C(C)C)[C@@H](C)CC)C(=O)N[C@@H](CC(N)=O)C(=O)N[C@@H](CO)C(N)=O [Mag(i+4)2, GIX1KFLX2SAKKFGKAFVGEIBNS] (H-GI[S5]KFL[S5]SAKKFGKAFVGEI[Nle]NS-NH2; staple 3-7) | little to no effect on RBCs |  |  |  |  | 
CCCC[C@H](NC(=O)[C@@H](NC(=O)[C@H](CCC(=O)O)NC(=O)CNC(=O)[C@@H](NC(=O)[C@H](Cc1ccccc1)NC(=O)[C@H](C)NC(=O)[C@H](CCCCN)NC(=O)CNC(=O)[C@H](Cc1ccccc1)NC(=O)[C@]1(C)CCCC=CCCC[C@](C)(NC(=O)[C@H](CC(C)C)NC(=O)[C@H](Cc2ccccc2)NC(=O)[C@H](CCCCN)NC(=O)CNC(=O)[C@@H](NC(=O)CN)[C@@H](C)CC)C(=O)N[C@@H](CO)C(=O)N[C@@H](C)C(=O)N[C@@H](CCCCN)C(=O)N1)C(C)C)[C@@H](C)CC)C(=O)N[C@@H](CC(N)=O)C(=O)N[C@@H](CO)C(N)=O [Mag(i+4)6, GIGKFLX1SAKX2FGKAFVGEIBNS] (H-GIGKFL[S5]SAK[S5]FGKAFVGEI[Nle]NS-NH2; staple 7-11) | no effect on any cell type |  |  |  |  | 
CCCC[C@@H]1NC(=O)[C@H]([C@@H](C)CC)NC(=O)[C@@](C)(NC(=O)CNC(=O)[C@@H](NC(=O)[C@H](Cc2ccccc2)NC(=O)[C@H](C)NC(=O)[C@H](CCCCN)NC(=O)CNC(=O)[C@H](Cc2ccccc2)NC(=O)[C@H](CCCCN)NC(=O)[C@H](CCCCN)NC(=O)[C@H](C)NC(=O)[C@H](CO)NC(=O)[C@H](Cc2c[nH]cn2)NC(=O)[C@H](CC(C)C)NC(=O)[C@H](Cc2ccccc2)NC(=O)[C@H](CCCCN)NC(=O)CNC(=O)[C@@H](NC(=O)CN)[C@@H](C)CC)C(C)C)CCCC=CCCC[C@@](C)(C(N)=O)NC(=O)[C@H](CC(N)=O)NC1=O [Mag(i+4)18, GIGKFLHSAKKFGKAFVGX1IBNX2] (H-GIGKFLHSAKKFGKAFVG[S5]I[Nle]N[S5]-NH2; staple 19-23) | lytic to all three cell types |  |  |  |  | 
GKGKFLHSAKKFGKAX1VGEX2BNS [Mag(i+4)15 (I2K)] |  | retain substantial, if not all, oncolytic activity | substantially impaired | substantially impaired | retain substantial, if not all, oncolytic activity | 
KIGKFLHSAKKFGKAX1VGEX2BNS [Mag(i+4)15 (G1K)] |  | retain substantial, if not all, oncolytic activity | substantially impaired | substantially impaired | retain substantial, if not all, oncolytic activity | 
